#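 Test compounds were applied to cells in 96-well plates for 48 hours at 5 doses. GI50 = concentration required for 50% inhibition of growth. Definition used: TGI = concentration required for complete inhibition of growth.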
# Experiments:
# Assay in all cases: NCI anticancer screen, dose series, 48 h
# 786-0 renal = tested on: 786-0 renal
# A498 renal = tested on: A498 renal
# A549 NSCLC = tested on: A549 NSCLC
# ACHN renal = tested on: ACHN renal
# BT-549 breast = tested on: BT-549 breast
# CAKI-1 renal = tested on: CAKI-1 renal
# CCRF-CEM leukemia = tested on: CCRF-CEM leukemia
# COLO 205 colon = tested on: COLO 205 colon
# DU-145 prostate = tested on: DU-145 prostate
# EKVX NSCLC = tested on: EKVX NSCLC
# HCC-2998 colon = tested on: HCC-2998 colon
# HCT-116 colon = tested on: HCT-116 colon
# HCT-15 colon = tested on: HCT-15 colon
# HL-60(TB) leukemia = tested on: HL-60(TB) leukemia
# HOP-62 NSCLC = tested on: HOP-62 NSCLC
# HS 578T breast = tested on: HS 578T breast
# HT29 colon = tested on: HT29 colon
# IGROV1 ovarian = tested on: IGROV1 ovarian
# K-562 leukemia = tested on: K-562 leukemia
# KM12 colon = tested on: KM12 colon
# LOX IMVI melanoma = tested on: LOX IMVI melanoma
# M14 melanoma = tested on: M14 melanoma
# MALME-3M melanoma = tested on: MALME-3M melanoma
# MCF7 breast = tested on: MCF7 breast
# MDA-MB-231 breast = tested on: MDA-MB-231 breast
# MDA-MB-435 = tested on: MDA-MB-435
# MOLT-4 leukemia = tested on: MOLT-4 leukemia
# NCI-H226 lung = tested on: NCI-H226 lung
# NCI-H23 lung = tested on: NCI-H23 lung
# NCI-H460 lung = tested on: NCI-H460 lung
# NCI-H522 lung = tested on: NCI-H522 lung
# NCI/ADR-RES ovarian = tested on: NCI/ADR-RES ovarian
# OVCAR-3 ovarian = tested on: OVCAR-3 ovarian
# OVCAR-4 ovarian = tested on: OVCAR-4 ovarian
# OVCAR-5 ovarian = tested on: OVCAR-5 ovarian
# OVCAR-8 ovarian = tested on: OVCAR-8 ovarian
# PC-3 prostate = tested on: PC-3 prostate
# RPMI-8226 leukemia = tested on: RPMI-8226 leukemia
# RXF 393 renal = tested on: RXF 393 renal
# SF-268 CNS = tested on: SF-268 CNS
# SF-295 CNS = tested on: SF-295 CNS
# SF-539 CNS = tested on: SF-539 CNS
# SK-MEL-2 melanoma = tested on: SK-MEL-2 melanoma
# SK-MEL-28 melanoma = tested on: SK-MEL-28 melanoma
# SK-MEL-5 melanoma = tested on: SK-MEL-5 melanoma
# SK-OV-3 ovarian = tested on: SK-OV-3 ovarian
# SN12C renal = tested on: SN12C renal
# SNB-19 CNS = tested on: SNB-19 CNS
# SNB-75 CNS = tested on: SNB-75 CNS
# SR leukemia = tested on: SR leukemia
# SW-620 colon = tested on: SW-620 colon
# T-47D breast = tested on: T-47D breast
# TK-10 renal = tested on: TK-10 renal
# U251 CNS = tested on: U251 CNS
# UACC-257 melanoma = tested on: UACC-257 melanoma
# UACC-62 melanoma = tested on: UACC-62 melanoma
# UO-31 renal = tested on: UO-31 renal
compound,measurement,setting,value
CC(C)(C)[Si](C)(C)OC1[C@@H](O[Si](C)(C)C(C)(C)C)[C@@H](CNC(=O)NC(=O)NC(=O)CI)O[C@H]1n1cnc2c(NC(=O)Nc3ccccc3)ncnc21 (some centres undefined),GI50,786-0 renal,357 nM
same,TGI,786-0 renal,1080 nM
same,GI50,A498 renal,3610 nM
same,TGI,A498 renal,11400 nM
same,GI50,A549 NSCLC,1570 nM
same,TGI,A549 NSCLC,11900 nM
same,GI50,ACHN renal,1410 nM
same,TGI,ACHN renal,9750 nM
same,GI50,BT-549 breast,6890 nM
same,TGI,BT-549 breast,13900 nM
same,GI50,CAKI-1 renal,96.6 nM
same,TGI,CAKI-1 renal,406 nM
same,GI50,CCRF-CEM leukemia,30.1 nM
same,TGI,CCRF-CEM leukemia,102 nM
same,GI50,COLO 205 colon,6110 nM
same,TGI,COLO 205 colon,13200 nM
same,GI50,DU-145 prostate,8670 nM
same,TGI,DU-145 prostate,20000 nM
same,GI50,EKVX NSCLC,236 nM
same,TGI,EKVX NSCLC,1140 nM
same,GI50,HCC-2998 colon,8220 nM
same,TGI,HCC-2998 colon,17800 nM
same,GI50,HCT-116 colon,2820 nM
same,TGI,HCT-116 colon,9080 nM
same,GI50,HCT-15 colon,9810 nM
same,TGI,HCT-15 colon,31800 nM
same,GI50,HL-60(TB) leukemia,84.5 nM
same,TGI,HL-60(TB) leukemia,166 nM
same,GI50,HOP-62 NSCLC,392 nM
same,TGI,HOP-62 NSCLC,1280 nM
same,GI50,HS 578T breast,2500 nM
same,TGI,HS 578T breast,17800 nM
same,GI50,HT29 colon,225 nM
same,TGI,HT29 colon,771 nM
same,GI50,IGROV1 ovarian,113 nM
same,TGI,IGROV1 ovarian,246 nM
same,GI50,K-562 leukemia,3550 nM
same,TGI,K-562 leukemia,8500 nM
same,GI50,KM12 colon,680 nM
same,TGI,KM12 colon,3780 nM
same,GI50,LOX IMVI melanoma,86.4 nM
same,TGI,LOX IMVI melanoma,155 nM
same,GI50,M14 melanoma,6100 nM
same,TGI,M14 melanoma,14600 nM
same,GI50,MALME-3M melanoma,143 nM
same,TGI,MALME-3M melanoma,565 nM
same,GI50,MCF7 breast,6100 nM
same,TGI,MCF7 breast,17400 nM
same,GI50,MDA-MB-231 breast,251 nM
same,TGI,MDA-MB-231 breast,995 nM
same,GI50,MDA-MB-435,7830 nM
same,TGI,MDA-MB-435,20800 nM
same,GI50,MOLT-4 leukemia,718 nM
same,TGI,MOLT-4 leukemia,3120 nM
same,GI50,NCI-H226 lung,10400 nM
same,TGI,NCI-H226 lung,20600 nM
same,GI50,NCI-H23 lung,187 nM
same,TGI,NCI-H23 lung,1090 nM
same,GI50,NCI-H460 lung,4790 nM
same,TGI,NCI-H460 lung,21700 nM
same,GI50,NCI-H522 lung,26.2 nM
same,TGI,NCI-H522 lung,52.2 nM
same,GI50,NCI/ADR-RES ovarian,909 nM
same,TGI,NCI/ADR-RES ovarian,3410 nM
same,GI50,OVCAR-3 ovarian,215 nM
same,TGI,OVCAR-3 ovarian,620 nM
same,GI50,OVCAR-4 ovarian,665 nM
same,TGI,OVCAR-4 ovarian,2360 nM
same,GI50,OVCAR-5 ovarian,2710 nM
same,TGI,OVCAR-5 ovarian,12200 nM
same,GI50,OVCAR-8 ovarian,275 nM
same,TGI,OVCAR-8 ovarian,925 nM
same,GI50,PC-3 prostate,385 nM
same,TGI,PC-3 prostate,3420 nM
same,GI50,RPMI-8226 leukemia,285 nM
same,TGI,RPMI-8226 leukemia,1760 nM
same,GI50,RXF 393 renal,713 nM
same,TGI,RXF 393 renal,3110 nM
same,GI50,SF-268 CNS,1500 nM
same,TGI,SF-268 CNS,7040 nM
same,GI50,SF-295 CNS,849 nM
same,TGI,SF-295 CNS,2360 nM
same,GI50,SF-539 CNS,441 nM
same,TGI,SF-539 CNS,1160 nM
same,GI50,SK-MEL-2 melanoma,8070 nM
same,TGI,SK-MEL-2 melanoma,17700 nM
same,GI50,SK-MEL-28 melanoma,9690 nM
same,TGI,SK-MEL-28 melanoma,22800 nM
same,GI50,SK-MEL-5 melanoma,8730 nM
same,TGI,SK-MEL-5 melanoma,16300 nM
same,GI50,SK-OV-3 ovarian,10400 nM
same,TGI,SK-OV-3 ovarian,27900 nM
same,GI50,SN12C renal,6490 nM
same,TGI,SN12C renal,15600 nM
same,GI50,SNB-19 CNS,12500 nM
same,TGI,SNB-19 CNS,38200 nM
same,GI50,SNB-75 CNS,651 nM
same,TGI,SNB-75 CNS,3170 nM
same,GI50,SR leukemia,44.7 nM
same,TGI,SR leukemia,159 nM
same,GI50,SW-620 colon,3380 nM
same,TGI,SW-620 colon,12600 nM
same,GI50,T-47D breast,9630 nM
same,TGI,T-47D breast,28000 nM
same,GI50,TK-10 renal,210 nM
same,TGI,TK-10 renal,1050 nM
same,GI50,U251 CNS,443 nM
same,TGI,U251 CNS,1880 nM
same,GI50,UACC-257 melanoma,7420 nM
same,TGI,UACC-257 melanoma,16700 nM
same,GI50,UACC-62 melanoma,8630 nM
same,TGI,UACC-62 melanoma,22600 nM
same,GI50,UO-31 renal,88.8 nM
same,TGI,UO-31 renal,178 nM
